# Results reported in patent US9575054B2, “Identification of antitumor compounds using placenta” (Anthrogenesis Corporation, priority 2013, dated 2017).
# Tests used:
# Format in all cases: cell-based, human
# HCT116 cells [1] = assay: MTS cell viability, HCT116 cells seeded on decellularized placental vascular scaffold (DPVS); conditions: 48 hours, control 100.00%
# Experimental: (§1) Blocks of decellularized placental vascular scaffold (DPVS) in 24-well plates were seeded with HCT116 cells (1×10^5 cells/per well), a human colorectal cancer cell line. As a control, HCT116 cells were cultured in wells only, i.e., in the absence of DPVS. Trichostatin A (TSA), a drug contemplated for use in the treatment of cancer, was added to the DPVS/cells or cells alone at concentrations of 20 μM and 100 μM, or was not added at all (as a control). After 48 hours of culture, cell viability was measured by MTS assay. […] Thus, DPVS can be used a platform for assessing cancer cell killing by potential antitumor compounds.
# HCT116 cells [2] = assay: MTS cell viability, HCT116 cells cultured in wells only; conditions: HCT116 alone, 48 hours, control 100.00%
# Experimental: as §1
# [3] = system: MDA-MB231/Luciferase positive cells; assay: Luciferase expression (IVIS imaging) of MDA-MB231/Luciferase cells in placental cotyledon; conditions: TSA 100 ng/mL, 4 days in bioreactor, single cotyledon
# Experimental: MDA-MB231/Luciferase positive cells were infused into the vasculature of a single isolated cotyledon (40×10^6 cells/cotyledon). Trichostatin A (TSA, 100 ng/mL) was added to the growth medium (300 mL) and the cells were cultured for 4 days in a bioreactor. As a control, an equivalent number (40×10^6 cells/cotyledon) of MDA-MB231/Luc cells were infused into the vasculature of a single isolated cotyledon and cultured in growth medium only for 4 days in a bioreactor. After 4 days of culture, each cotyledon was transferred to growth medium comprising Luciferin (150 ng/mL) for 10 minutes. Both cotyledons then were analyzed using the IVIS imaging system.
# [4] = system: MDA-MB231/Luciferase cells; assay: Luciferase activity (Xenogen IVIS) of MDA-MB231/Luciferase cells on DPVS; conditions: TSA 100 ng/mL, 24 hours, cells on DPVS in 6-well plates; untreated 25.63×10^6
# Experimental: Cells expressing luciferase were detected visually and quantitatively, using the Xenogen IVIS spectrum, by measuring Luciferase activity of the cells, which is indicative of cell number.
# To examine the anti-cancer drug effect on cancer cells grown in DPVS, 1.5×10^5 MDA-MB231/Luciferase cells (a human breast cancer (adenocarcinoma) cell line that expresses luciferase; Cell Biolabs) were seeded onto DPVS in 6-well plates. One set of cells/DPVS was treated with Trichostatin A (TSA, 100 ng/mL) for 24 hours. Luciferase expression by the TSA-treated cells cultured on DPVS was compared with control cultures comprising cells/DPVS that were not treated with TSA. […] Thus, DPVS can be used to study the ability of cancer drugs, e.g., TSA, to affect cancer cell growth in a three-dimensional context.
# [5] = system: MDA-MB231/Luc and CRL1803-TT (thyroid tissue carcinoma) cells; assay: MTS viable cell number of tumor cells in decellularized placental cotyledon (bioreactor); conditions: TSA 100 ng/mL, 10 days in bioreactor, single cotyledon, FIG. 1A
# Experimental: (§2) Trichostatin A (TSA, 100 ng/mL) was added to the growth medium (300 mL) and the cells were cultured for 10 days in a bioreactor. As a control, MDA-MB231/Luc and CRL1803-TT were infused into the vasculature of a single isolated cotyledon (3×10^6 cells/cotyledon) and cultured in growth medium only for 10 days in a bioreactor.
# (§3) Culture medium was collected throughout the culture period and measured for Calcitonin levels by ELISA. In addition, at the end of the culture (day-10), the numbers of viable cells in both the TSA-treated and control cotyledons were determined by MTS assay.
# [6] = system: MDA-MB231/Luc and CRL1803-TT (thyroid tissue carcinoma) cells; assay: Calcitonin ELISA of culture medium from tumor cells in placental cotyledon; conditions: TSA 100 ng/mL, 10-day culture, single cotyledon, FIG. 1B
# Experimental: as §2, §3
structure (smiles),measurement,setting,value
"CC(/C=C/C(=O)NO)=C\[C@@H](C)C(=O)c1ccc(N(C)C)cc1 [TSA, Trichostatin A]",Cell viability (% of untreated control),HCT116 cells [1]; TSA 20 uM,97.00%
same,Cell viability (% of untreated control),HCT116 cells [1]; TSA 100 uM,73.32%
same,Cell viability (% of untreated control),HCT116 cells [2]; TSA 20 uM,11.21%
same,Cell viability (% of untreated control),HCT116 cells [2]; TSA 100 uM,10.36%
same,luciferase expression vs cotyledon cultured in the absence of TSA,[3],marked decrease in luciferase expression
same,luciferase signal,[4],8.22×10^6
same,cell survival (viable cells by MTS) vs growth medium control,[5],reduced cell survival
same,Calcitonin production by the cells,[6],reduced
